Results: patent US9708336B2, “Metallo-beta-lactamase inhibitors” (priority 2014, dated 2017)
Like-named read-outs stand apart in the source and are kept apart here.

Columns and labels:
NDM-1 = NDM-1 (Klebsiella pneumoniae, UniProt C7C422); experiment: biochemical; format: biochemical; conditions: read-out: NDM-1 IC50
VIM-1 = VIM-1 (Pseudomonas aeruginosa (strain ATCC 15692 / DSM 22644 / CIP 104116 / JCM 14847 / LMG 12228 / 1C / PRS 101 / PAO1), UniProt A0A0F7KYQ8); experiment: Enzyme activity: determination of IC50, fluorescence assay with CCF2-FA substrate (VIM-1); format: biochemical; conditions: read-out: VIM-1 IC50
IMP-1 = IMP-1 (Serratia marcescens, UniProt P52699); experiment: biochemical; format: biochemical
[1] = test system: Klebsiella pneumoniae expressing VIM-1 (IHMA599644); experiment: Antibiotic potentiation activity: synergistic concentration (MITC95) with imipenem, OD600 growth; format: cell-based; conditions: for Klebsiella pneumoniae MITC95: Klebsiella pneumoniae expressing VIM-1 (IHMA599644), 95% growth inhibition; for Klebsiella pneumoniae expressing VIM-1 (IHMA 599644) MITC95: concentration giving 95% inhibition of bacterial growth
Method in brief: (§1)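 Absorbance after a 22–24 h, 35 °C incubation served as the read-out. Wells held bacteria (saline suspension diluted 1:100 into 1.1× CAMHB), imipenem at 4 μg/ml final or optionally 1 μg/ml, and test compound.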

[2] = test system: Escherichia coli expressing NDM-1 (CLB30005); experiment: as above; format: cell-based; conditions: for Escherichia coli MITC95: Escherichia coli expressing NDM-1 (CLB30005), 95% growth inhibition; for Escherichia coli expressing NDM-1 (CLB 30005) MITC95: concentration giving 95% inhibition of bacterial growth
Method in brief: as §1

[3] = test system: Serratia marcescens expressing IMP-1 (CL5741); experiment: as above; format: cell-based; conditions: for Serratia marcescens MITC95: Serratia marcescens expressing IMP-1 (CL5741), 95% growth inhibition; for Serratia marcescens expressing IMP-1 (CL5741) MITC95: concentration giving 95% inhibition of bacterial growth
Method in brief: as §1

[4] = NDM-1 enzyme, CCF2-FA fluorescence assay
[5] = VIM-1 enzyme, CCF2-FA fluorescence assay
[6] = IMP-1 enzyme, CCF2-FA fluorescence assay, read-out: IMP-1 IC50
[7] = fluorescence assay with CCF2-FA substrate
[8] = fluorescence assay with CCF2-FA substrate, read-out: IMP-1 IC50

Sequence of NDM-1 (C7C422 whole entry, looked up, species assumed): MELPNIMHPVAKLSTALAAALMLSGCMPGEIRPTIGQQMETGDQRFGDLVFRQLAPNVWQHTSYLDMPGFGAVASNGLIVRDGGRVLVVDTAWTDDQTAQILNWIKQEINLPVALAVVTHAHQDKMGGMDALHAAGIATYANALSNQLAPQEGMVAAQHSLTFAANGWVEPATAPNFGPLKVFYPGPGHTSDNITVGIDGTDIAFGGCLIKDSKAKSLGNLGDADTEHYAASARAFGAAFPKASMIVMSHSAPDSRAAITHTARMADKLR
Sequence of IMP-1 (P52699 whole entry, looked up): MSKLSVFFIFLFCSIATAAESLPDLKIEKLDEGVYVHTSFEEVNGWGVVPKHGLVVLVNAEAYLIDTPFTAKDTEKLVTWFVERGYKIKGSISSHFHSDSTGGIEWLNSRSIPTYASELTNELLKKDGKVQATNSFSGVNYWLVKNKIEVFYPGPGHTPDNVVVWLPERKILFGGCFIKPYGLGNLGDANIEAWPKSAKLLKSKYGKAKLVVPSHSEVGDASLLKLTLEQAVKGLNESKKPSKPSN

Compound `NCCc1ccc(-c2cccc(S(N)(=O)=O)c2-c2nnn[nH]2)cc1` [Example 300, 4′-(2-aminoethyl)-2-(1H-tetrazol-5-yl)-[1,1′-biphenyl]-3-sulfonamide] has an IC50 (NDM-1; [4]) of 37.2 nM, an IC50 (VIM-1; [5]) of 31.5 nM and an IC50 (IMP-1; [6]) of 373 nM. The “Klebsiella pneumoniae MITC95” value [1] was 9.375 µM, the “Escherichia coli MITC95” value [2] was 1.172 µM and the “Serratia marcescens MITC95” value [3] was 12.5 µM.
`NS(=O)(=O)c1cc(Cl)cc(-c2ccc3c(c2)C(=O)NC3)c1-c1nn[nH]n1` [Example 289, 5-Chloro-3-(3-oxo-2,3-dihydro-1H-isoindol-5-yl)-2-(2H-tetrazol-5-yl)benzenesulfonamide] gave an IC50 (NDM-1; [4]) of 13.5 nM, an IC50 (VIM-1; [5]) of 452 nM and an IC50 (IMP-1; [6]) of 121 nM. The “Klebsiella pneumoniae MITC95” value [1] was over 200 µM, the “Escherichia coli MITC95” value [2] was 3.125 µM and the “Serratia marcescens MITC95” value [3] was 31.25 µM.
`NS(=O)(=O)c1cccc(-c2ccccc2)c1-c1nn[nH]n1` [Example 14, 2-(2H-tetrazol-5-yl)biphenyl-3-sulfonamide] gave an IC50 (NDM-1; [7]) of 5.19 nM, an IC50 (VIM-1; [7]) of 108 nM and an IC50 (IMP-1; [8]) of 172 nM. For the same compound, the “Klebsiella pneumoniae expressing VIM-1 (IHMA 599644) MITC95” value [1] was 100 µM, the “Escherichia coli expressing NDM-1 (CLB 30005) MITC95” value [2] was 0.3906 µM and the “Serratia marcescens expressing IMP-1 (CL5741) MITC95” value [3] was 6.25 µM.
Compound `CCN(CC)C(=O)c1ccc(-c2cccc(S(N)(=O)=O)c2-c2nn[nH]n2)cc1` [Example 9, N,N-diethyl-3′-sulfamoyl-2′-(2H-tetrazol-5-yl)biphenyl-4-carboxamide] has an IC50 (NDM-1; [7]) of 1.48 nM, an IC50 (VIM-1; [7]) of 277 nM and an IC50 (IMP-1; [8]) of 17.2 nM. The “Klebsiella pneumoniae expressing VIM-1 (IHMA 599644) MITC95” value [1] was over 200 µM, the “Escherichia coli expressing NDM-1 (CLB 30005) MITC95” value [2] was 3.125 µM and the “Serratia marcescens expressing IMP-1 (CL5741) MITC95” value [3] was 12.5 µM.
`NC(=O)Cc1ccc(-c2cccc(S(N)(=O)=O)c2-c2nnn[nH]2)cc1` [Example 303, 2-(3′-sulfamoyl-2′-(1H-tetrazol-5-yl)-[1,1′-biphenyl]-4-yl)acetamide] showed an IC50 (NDM-1; [4]) of 5.06 nM, an IC50 (VIM-1; [5]) of 44.6 nM and an IC50 (IMP-1; [6]) of 59 nM. For the same compound, the “Klebsiella pneumoniae MITC95” value [1] was 18.75 µM, the “Escherichia coli MITC95” value [2] was 0.9766 µM and the “Serratia marcescens MITC95” value [3] was 2.344 µM.
`NS(=O)(=O)c1cccc(-c2ccc(S(=O)(=O)NC3CC3)cc2)c1-c1nn[nH]n1` [Example 60, N~4~′-cyclopropyl-2-(2H-tetrazol-5-yl)biphenyl-3,4′-disulfonamide] showed an IC50 (NDM-1; [7]) of 3.17 nM, an IC50 (VIM-1; [7]) of 27.8 nM and an IC50 (IMP-1; [8]) of 16.5 nM. For the same compound, the “Klebsiella pneumoniae expressing VIM-1 (IHMA 599644) MITC95” value [1] was 75 µM, the “Escherichia coli expressing NDM-1 (CLB 30005) MITC95” value [2] was 3.906 µM and the “Serratia marcescens expressing IMP-1 (CL5741) MITC95” value [3] was 4.688 µM.
Compound `NS(=O)(=O)c1nncc(-c2ccc(Br)cc2)c1-c1nn[nH]n1` [Example 277, 5-(4-Bromophenyl)-4-(2H-tetrazol-5-yl)pyridazine-3-sulfonamide] has an IC50 (NDM-1; [4]) of 296 nM, an IC50 (VIM-1; [5]) of 1230 nM and an IC50 (IMP-1; [6]) of 5270 nM. The “Klebsiella pneumoniae MITC95” value [1] was over 200 µM, the “Escherichia coli MITC95” value [2] was 12.5 µM and the “Serratia marcescens MITC95” value [3] was 125 µM.
`Cc1nc2ccccc2n1Cc1ccc(-c2cccc(S(N)(=O)=O)c2-c2nnn[nH]2)cc1` [Example 304, 4′-((2-methyl-1H-benzo[d]imidazol-1-yl)methyl)-2-(1H-tetrazol-5-yl)-[1,1′-biphenyl]-3-sulfonamide] showed an IC50 (NDM-1; [4]) of 29.2 nM, an IC50 (VIM-1; [5]) of 103 nM and an IC50 (IMP-1; [6]) of 50.3 nM. For the same compound, the “Klebsiella pneumoniae MITC95” value [1] was over 200 µM, the “Escherichia coli MITC95” value [2] was 6.25 µM and the “Serratia marcescens MITC95” value [3] was 7.031 µM.
With `NS(=O)(=O)c1nccc(-c2ccncc2)c1-c1nnn[nH]1` [Example 194, 3-(1H-tetrazol-5-yl)-[4,4′-bipyridine]-2-sulfonamide] the IC50 (NDM-1; [7]) was 248 nM, the IC50 (VIM-1; [7]) was 907 nM and the IC50 (IMP-1; [8]) was 2270 nM. The “Klebsiella pneumoniae expressing VIM-1 (IHMA 599644) MITC95” value [1] was 62.5 µM, the “Escherichia coli expressing NDM-1 (CLB 30005) MITC95” value [2] was 0.7813 µM and the “Serratia marcescens expressing IMP-1 (CL5741) MITC95” value [3] was 75 µM.
`Cn1nnc2ccc(-c3cccc(S(N)(=O)=O)c3-c3nn[nH]n3)cc21` [Example 67, 3-(1-methyl-1H-benzotriazol-6-yl)-2-(2H-tetrazol-5-yl)benzenesulfonamide] showed an IC50 (NDM-1; [7]) of 2.16 nM, an IC50 (VIM-1; [7]) of 57 nM and an IC50 (IMP-1; [8]) of 911 nM. For the same compound, the “Klebsiella pneumoniae expressing VIM-1 (IHMA 599644) MITC95” value [1] was 62.5 µM, the “Escherichia coli expressing NDM-1 (CLB 30005) MITC95” value [2] was 2.344 µM and the “Serratia marcescens expressing IMP-1 (CL5741) MITC95” value [3] was 75 µM.
In the case of `NS(=O)(=O)c1cccc(-c2ccco2)c1-c1nn[nH]n1` [Example 41, 3-furan-2-yl-2-(2H-tetrazol-5-yl)benzenesulfonamide], the IC50 (NDM-1; [7]) is reported as 30.4 nM, the IC50 (VIM-1; [7]) is reported as 1150 nM and the IC50 (IMP-1; [8]) is reported as 247 nM. The “Klebsiella pneumoniae expressing VIM-1 (IHMA 599644) MITC95” value [1] was 200 µM, the “Escherichia coli expressing NDM-1 (CLB 30005) MITC95” value [2] was 0.3906 µM and the “Serratia marcescens expressing IMP-1 (CL5741) MITC95” value [3] was 9.375 µM.
Compound `CCCc1ccc(-c2ccc(C3CCNCC3)cc2)c(-c2nnn[nH]2)c1S(N)(=O)=O` [Example 260, 4′-(Piperidin-4-yl)-4-propyl-2-(1H-tetrazol-5-yl)-[1,1′-biphenyl]-3-sulfonamide] has an IC50 (NDM-1; [4]) of 11.2 nM, an IC50 (VIM-1; [5]) of 0.797 nM and an IC50 (IMP-1; [6]) of 6.72 nM. For the same compound, the “Klebsiella pneumoniae MITC95” value [1] was 6.25 µM, the “Escherichia coli MITC95” value [2] was 6.25 µM and the “Serratia marcescens MITC95” value [3] was 1.563 µM.
In the case of `Nc1ncc(-c2cccc(S(N)(=O)=O)c2-c2nnn[nH]2)cn1` [Example 301, 3-(2-aminopyrimidin-5-yl)-2-(1H-tetrazol-5-yl)benzenesulfonamide], the IC50 (NDM-1; [4]) is reported as 8.2 nM, the IC50 (VIM-1; [5]) is reported as 282 nM and the IC50 (IMP-1; [6]) is reported as 1380 nM. The “Klebsiella pneumoniae MITC95” value [1] was 25 µM, the “Escherichia coli MITC95” value [2] was 0.7813 µM and the “Serratia marcescens MITC95” value [3] was 37.5 µM.
Compound `NS(=O)(=O)c1cccc(-c2ccc(C(=O)N3CCC(O)CC3)cc2)c1-c1nn[nH]n1` [Example 52, 4′-[(4-hydroxypiperidin-1-yl)carbonyl]-2-(2H-tetrazol-5-yl)biphenyl-3-sulfonamide] has an IC50 (NDM-1; [7]) of 1.71 nM, an IC50 (VIM-1; [7]) of 96.6 nM and an IC50 (IMP-1; [8]) of 17.9 nM. For the same compound, the “Klebsiella pneumoniae expressing VIM-1 (IHMA 599644) MITC95” value [1] was 100 µM, the “Escherichia coli expressing NDM-1 (CLB 30005) MITC95” value [2] was 1.563 µM and the “Serratia marcescens expressing IMP-1 (CL5741) MITC95” value [3] was 6.25 µM.
With `NS(=O)(=O)c1nccc(-c2ccc3c(c2)CNC3=O)c1-c1nnn[nH]1` [Example 196, 4-(1-oxoisoindolin-5-yl)-3-(1H-tetrazol-5-yl)pyridine-2-sulfonamide] the IC50 (NDM-1; [7]) was 45.6 nM, the IC50 (VIM-1; [7]) was 50.3 nM and the IC50 (IMP-1; [8]) was 1590 nM. The “Klebsiella pneumoniae expressing VIM-1 (IHMA 599644) MITC95” value [1] was 25 µM, the “Escherichia coli expressing NDM-1 (CLB 30005) MITC95” value [2] was 1.953 µM and the “Serratia marcescens expressing IMP-1 (CL5741) MITC95” value [3] was 125 µM.
In the case of `CS(=O)(=O)CCn1cc(-c2cccc(S(N)(=O)=O)c2-c2nn[nH]n2)cn1` [Example 54, 3-{1-[2-(methylsulfonyl)ethyl]-1H-pyrazol-4-yl}-2-(2H-tetrazol-5-yl)benzenesulfonamide], the IC50 (NDM-1; [7]) is reported as 42.3 nM, the IC50 (VIM-1; [7]) is reported as 937 nM and the IC50 (IMP-1; [8]) is reported as 205 nM. For the same compound, the “Klebsiella pneumoniae expressing VIM-1 (IHMA 599644) MITC95” value [1] was over 200 µM, the “Escherichia coli expressing NDM-1 (CLB 30005) MITC95” value [2] was 2.344 µM and the “Serratia marcescens expressing IMP-1 (CL5741) MITC95” value [3] was 18.75 µM.
In the case of `CC(C)(C)OC(=O)N1CCN(c2ccc(-c3cccc(S(N)(=O)=O)c3-c3nn[nH]n3)cc2)CC1` [Example 7, tert-butyl 4-[3′-sulfamoyl-2′-(2H-tetrazol-5-yl)biphenyl-4-yl]piperazine-1-carboxylate], the IC50 (NDM-1; [7]) is reported as 3.69 nM, the IC50 (VIM-1; [7]) is reported as 486 nM and the IC50 (IMP-1) is reported as 29.4 nM. For the same compound, the “Klebsiella pneumoniae expressing VIM-1 (IHMA 599644) MITC95” value [1] was over 200 µM, the “Escherichia coli expressing NDM-1 (CLB 30005) MITC95” value [2] was 6.25 µM and the “Serratia marcescens expressing IMP-1 (CL5741) MITC95” value [3] was 12.5 µM.
